Results published in the NIST ThermoML archive (doi:10.1016/j.jct.2017.05.020).
Numbers after ± are expanded uncertainties.

Columns and labels:
[1] = wn = mass fraction of the nth substance listed; settings: 100 kPa, Liquid, Vibrating tube method
[2] = refractive index (Na D-line) (dimensionless); wn = mass fraction of the nth substance listed; settings: 100 kPa, Liquid, Standard Abbe refractometry

C=CC[P+](c1ccccc1)(c1ccccc1)c1ccccc1.[Br-] [allyltriphenylphosphonium bromide] + OCCOCCOCCO
Settings	mass density, w1 = 0.1375 [kg/m3]	mass density, w1 = 0.2033 [kg/m3]	mass density, w1 = 0.3895 [kg/m3]	refractive index, w1 = 0.1375	refractive index, w1 = 0.2033	refractive index, w1 = 0.3895
[1], 293.15 K	1146.2 ± 7.9	1159.2 ± 7.8	1190.8 ± 7.7	–	–	–
[1], 298.15 K	1142.5 ± 7.9	1155.5 ± 7.8	1187.1 ± 7.7	–	–	–
[1], 303.15 K	1138.8 ± 7.9	1151.7 ± 7.7	1183.4 ± 7.7	–	–	–
[1], 308.15 K	1135 ± 7.8	1148 ± 7.7	1179.7 ± 7.7	–	–	–
[1], 313.15 K	1131.3 ± 7.8	1144.2 ± 7.7	1176.1 ± 7.7	–	–	–
[1], 318.15 K	1127.5 ± 7.8	1140.5 ± 7.7	1172.4 ± 7.6	–	–	–
[1], 323.15 K	1123.7 ± 7.8	1136.7 ± 7.6	1168.7 ± 7.6	–	–	–
[1], 328.15 K	1119.9 ± 7.7	1133 ± 7.6	1165 ± 7.6	–	–	–
[1], 333.15 K	1116.1 ± 7.7	1129.2 ± 7.6	1161.3 ± 7.6	–	–	–
[1], 338.15 K	1112.2 ± 7.7	1125.5 ± 7.6	1157.6 ± 7.5	–	–	–
[1], 343.15 K	1108.4 ± 7.7	1121.7 ± 7.5	1153.9 ± 7.5	–	–	–
[2], 293.15 K	–	–	–	1.4803 ± 0.0038	1.4945 ± 0.0039	1.5314 ± 0.0037
[2], 298.15 K	–	–	–	1.4786 ± 0.0038	1.4927 ± 0.0039	1.5297 ± 0.0037
[2], 303.15 K	–	–	–	1.4769 ± 0.0038	1.4909 ± 0.0039	1.528 ± 0.0037
[2], 308.15 K	–	–	–	1.4752 ± 0.0038	1.4892 ± 0.0039	1.5263 ± 0.0037
[2], 313.15 K	–	–	–	1.4735 ± 0.0038	1.4874 ± 0.0039	1.5245 ± 0.0037
[2], 318.15 K	–	–	–	1.4717 ± 0.0038	1.4857 ± 0.0039	1.5228 ± 0.0037
[2], 323.15 K	–	–	–	1.47 ± 0.0038	1.4839 ± 0.0039	1.5211 ± 0.0037
[2], 328.15 K	–	–	–	1.4683 ± 0.0038	1.4822 ± 0.0039	1.5193 ± 0.0037
[2], 333.15 K	–	–	–	1.4666 ± 0.0038	1.4804 ± 0.0039	1.5176 ± 0.0037
[2], 338.15 K	–	–	–	1.4649 ± 0.0038	1.4787 ± 0.0039	1.5158 ± 0.0037
[2], 343.15 K	–	–	–	1.4632 ± 0.0038	1.4769 ± 0.0039	1.5141 ± 0.0037

OCCOCCOCCO [triethylene glycol] + C=CC[P+](c1ccccc1)(c1ccccc1)c1ccccc1.[Br-]
w2 = 0
Settings	mass density, [1] [kg/m3]	refractive index, [2]
293.15 K	1124.6 ± 7.9	1.4576 ± 0.0035
298.15 K	1120.8 ± 7.9	1.4558 ± 0.0035
303.15 K	1116.9 ± 7.8	1.4541 ± 0.0035
308.15 K	1113 ± 7.8	1.4523 ± 0.0035
313.15 K	1109.1 ± 7.8	1.4505 ± 0.0035
318.15 K	1105.2 ± 7.7	1.4488 ± 0.0035
323.15 K	1101.3 ± 7.7	1.4469 ± 0.0035
328.15 K	1097.4 ± 7.7	1.445 ± 0.0035
333.15 K	1093.5 ± 7.7	1.4434 ± 0.0035
338.15 K	1089.6 ± 7.6	1.4417 ± 0.0035
343.15 K	1085.6 ± 7.6	1.4399 ± 0.0035
